Columns and labels:
[1] = system: mice; experiment: Head-twitch test (5-HTP-induced head-twitch response); type: in vivo; conditions: oral, head twitches counted in a 2-minute period 30 min after 5-HTP 100 mg/kg ip, versus vehicle control
Method: The head-twitch response of mice is initiated by a variety of 5-HT mimetic drugs. The test was conducted in a manner similar to the procedure described by Heal, D.J., Philpot, J, O'Shaughnessy, K.M. and Davies, C.L.: The influence of central noradrenergic function on 5-HT-mediated head-twitch responses in mice: Possible implications for the actions of antidepressant drugs. Psychopharmacology 89: 414-420, 1986,
The head-twitch consisted of a characteristic rotation of the head, neck and shoulders of the mice. The test drug or vehicle was given by oral gavage. Thirty minutes later all animals were pretreated with carbidopa (25 mg/kg ip). Fifteen minutes following carbidopa administration, the mice were injected with 100 mg/kg ip of L-5-hydroxytryptophan (5-HTP). The animals were then left for 30 minutes before measurement of the head-twitch response in the following 2-minute period. For calculation of percent (%) response increase, the difference in drug head twitch number versus the control vehicle head twitch number is divided by the control head twitch and multiplied by 100.

[2] = system: mice; experiment: Behavior Despair (Forced Swimming) test, mice dosed ip; type: in vivo; conditions: reduction in immobility time versus vehicle; dose 30 mg/kg (ip); one hour after dosing; 15-minute test period
Method: (§1) Behavior Despair (Forced Swimming) test, a well known pharmacological screening method for depression, was conducted similar to the test described by Porsolt, R.D., Bertin, A. and Jalfre, M.: Behavior despair in mice: A preliminary screening test for antidepressants. Arch. Int. Pharmacodyn. Ther. 229: 327-336, 1977.
Mice were dosed intraperitoneally (ip) with either test compound or vehicle. One hour later each animal was placed in a 1500 mL glass beaker containing water at room temperature. Mice were kept in the water for a period of 15 minutes and the duration of immobility observed within the 15-minute test period was recorded. A mouse was judged to be immobile if it floated motionlessly in the water making only those movements necessary to keep its head above the water. For calculation of percent (%) reduction in immobility time, the difference in immobility time for control vehicle versus the drug is divided by the immobility time of the control vehicle and multiplied by 100.

[3] = molecular target: T1, MAO-A (Rattus norvegicus, UniProt P21396); experiment: MAO-A inhibiting activity in vitro, radioisotopic assay with [14C] serotonin; type: biochemical; conditions: Rat liver mitochondrial membranes, 300 nM deprenyl to block MAO-B, preincubation 60 minutes at 37°C
T1 construct: Rat liver mitochondrial membranes as the source of the enzyme; from tissue; host or cells: rat liver mitochondrial membranes
T1 sequence (P21396 1-526): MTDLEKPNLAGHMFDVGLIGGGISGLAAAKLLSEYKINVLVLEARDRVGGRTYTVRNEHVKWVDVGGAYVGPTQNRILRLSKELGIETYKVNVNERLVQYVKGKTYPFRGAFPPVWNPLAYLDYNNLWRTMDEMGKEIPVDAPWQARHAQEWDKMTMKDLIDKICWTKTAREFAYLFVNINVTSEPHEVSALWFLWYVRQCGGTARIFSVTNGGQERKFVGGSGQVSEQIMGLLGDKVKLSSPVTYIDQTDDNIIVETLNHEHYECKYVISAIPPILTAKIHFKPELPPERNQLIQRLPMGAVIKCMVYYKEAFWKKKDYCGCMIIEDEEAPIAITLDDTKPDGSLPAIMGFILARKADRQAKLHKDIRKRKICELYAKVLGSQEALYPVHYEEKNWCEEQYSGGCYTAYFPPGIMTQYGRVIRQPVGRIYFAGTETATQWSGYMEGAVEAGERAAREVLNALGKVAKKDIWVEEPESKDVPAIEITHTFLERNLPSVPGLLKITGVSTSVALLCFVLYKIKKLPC
Method: The MAO-A activities in vitro were measured using Rat liver mitochondrial membranes as the source of the enzyme, according to modified method of S. Otsuka & Y. Kobayashi. A Radioisotopic Assay for Monoamine Oxidase Determinations in Human Plasma. Biochem. Pharmacol. 13: 995-1006 (1964)
Rat liver mitochondrial membranes is preincubated with drug or vehicle, and subtype selective blocker (300 nM deprenyl to block the B type of MAO) for 60 minutes at 37°C in 100 mM KPO4 (pH 7.2). [^14C] Serotonin ([…]) is then added and incubated for 10 minutes. The reaction is stopped by the addition of 0.5 ml of 2M citric acid. Radioactive product is extracted into a toluene/ethyl acetate fluor and compared to control values by scintillation spectrophotometry in order to ascertain any interactions of test compounds with MAO-A.

[4] = system: Rats; experiment: Behavior Despair (Forced Swimming) test, rats dosed po; type: in vivo; conditions: reduction in immobility time versus vehicle; dose 60 mg/kg (po); one hour after dosing; 4-minute test period
Method: as §1
Rats were pre-swam for 10 minute the day before the test in 4000 mL glass cylinders containing water at 25°C. On the following day, rats were dosed orally (po) with either test compound or vehicle. One hour later each animal was placed in the glass cylinder and, following a 2-minute pretest, immobility was recorded for a 4-minute test period. For calculation of percent (%) reduction in immobility time, the difference in immobility time for control vehicle versus the drug is divided by the immobility time of the control vehicle and multiplied by 100.

Structure (SMILES): NC(=S)OCC1Cc2ccccc2CN1 (centres unmarked) [Example 14, 3-Thiocarbamoyloxymethyl-1,2,3,4-tetrahydroisoquinoline]
- % Response Increase ([1]; dose 8 mg/kg): 42%

Structure (SMILES): CNC(=S)OC[C@@H]1Cc2ccccc2CN1C(=O)Nc1ccccc1 [Example 17, (S)-3-(N-Methyl-thiocarbamoyloxymethyl)-N-(anilinocarbonyl)-1,2,3,4-tetrahydroisoquinoline]
- % Reduction [2]: 46%

Structure (SMILES): NC(=O)OCC1Cc2ccccc2CN1 (racemic) [Example 5, (RS)-3-Carbamoyloxymethyl-1,2,3,4-tetrahydroisoquinoline]
- % Response Increase ([1]; dose 3 mg/kg): 144%

Structure (SMILES): CN1Cc2ccccc2C[C@H]1COC(N)=O [Example 8, (S)-3-Carbamoyloxymethyl-N-methyl-1,2,3,4-tetrahydroisoquinoline]
- % Response Increase ([1]; dose 1 mg/kg): 77%

Structure (SMILES): NC(=O)OC[C@H]1Cc2ccccc2CN1 [Example 4, (R)-3-Carbamoyloxymethyl-1,2,3,4-tetrahydroisoquinoline]
- inhibition at 10 µM [3]: 63.9%
- % Response Increase ([1]; dose 15 mg/kg): 258%

Structure (SMILES): NC(=O)OC[C@@H]1Cc2ccccc2CN1 [Example 3, (S)-3-Carbamoyloxymethyl-1,2,3,4-tetrahydroisoquinoline]
- inhibition at 10 µM [3]: 97.7%
- % Reduction [4]: 83%
- % Response Increase ([1]; dose 1 mg/kg): 238%

Structure (SMILES): CNC(=S)OC[C@@H]1Cc2ccccc2CN1C [Example 18, (S)-3-(N-Methylthiocarbamoyloxymethyl)-N-methyl-1,2,3,4-tetrahydroisoquinoline]
- % Reduction [2]: 33%

Structure (SMILES): CNC(=S)OC[C@@H]1Cc2ccccc2CN1 [Example 16, (S)-3-(N-Methylthiocarbamoyloxymethyl)-1,2,3,4-tetrahydroisoquinoline]
- % Reduction [2]: 56%

From patent publication EP1149079B1, “TETRAHYDRO ISOQUINO LINEALKANOL DERIVATIVES AND PHARMACEUTICAL COMPOSITIONS CONTAINING SAME” (SK Corporation, priority 1999, dated 2000)
